Reference: patent publication US20060292657A1, “Phex substrates and methods using same” (priority 2003, published 2006)
Square brackets hold non-standard residues; d marks the D form. Primed or numbered codes have the meaning given here. Ends that are not written are not given here. Peptide text beside a SMILES is read from it. * marks the point of attachment. EDDnp = O=[N+]([O-])c1ccc(NCCN*)c([N+](=O)[O-])c1; Dnp = O=[N+]([O-])c1ccc(*)c([N+](=O)[O-])c1; Dnp′ = 2,4-dinitrophenyl; 2Abz = Nc1ccccc1C(=O)O

Tests used:
Type in all cases: biochemical
secPHEX [1] = target: T1, secPHEX (Homo sapiens, UniProt P78562); assay: Determination of secPHEX activity and concentration in serum with fluorigenic substrate; conditions: activity determination in serum
T1 construct: pure soluble form of PHEX (secPHEX); made in house
T1 sequence (P78562 46-749 limits assumed): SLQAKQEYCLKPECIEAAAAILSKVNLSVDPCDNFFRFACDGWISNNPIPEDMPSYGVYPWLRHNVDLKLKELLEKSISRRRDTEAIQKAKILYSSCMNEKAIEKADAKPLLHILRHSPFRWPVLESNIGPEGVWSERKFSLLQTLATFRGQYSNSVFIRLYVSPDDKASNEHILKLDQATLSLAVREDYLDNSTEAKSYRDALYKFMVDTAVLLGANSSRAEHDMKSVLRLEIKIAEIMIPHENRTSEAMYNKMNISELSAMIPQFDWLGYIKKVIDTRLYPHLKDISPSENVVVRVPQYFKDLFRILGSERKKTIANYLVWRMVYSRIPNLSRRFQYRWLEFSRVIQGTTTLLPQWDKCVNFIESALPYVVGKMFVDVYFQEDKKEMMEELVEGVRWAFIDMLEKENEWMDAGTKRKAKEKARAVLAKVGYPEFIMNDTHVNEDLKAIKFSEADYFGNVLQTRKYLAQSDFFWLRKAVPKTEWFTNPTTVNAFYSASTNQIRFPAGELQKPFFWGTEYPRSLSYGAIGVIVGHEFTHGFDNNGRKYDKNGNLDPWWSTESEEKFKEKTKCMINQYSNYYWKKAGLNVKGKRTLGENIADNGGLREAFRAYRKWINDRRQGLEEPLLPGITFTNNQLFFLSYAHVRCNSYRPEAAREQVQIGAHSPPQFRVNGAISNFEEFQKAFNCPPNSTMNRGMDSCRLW
Experimental: FIG. 6 graphically illustrates the secPHEX enzymatic activity on a fluorigenic substrate of the present invention in rat serum. The observed fluorescence increase was proportional to the reaction product formation. The reaction was carried out in a total volume of 200 μl constituted of buffer: 50 mM Hepes (NaOH) pH 7.4, 150 mM NaCl, 5*10−6 M captopril (ACE inhibitor), containing 10 μl of rat serum in which purified sPHEX was spiked. The enzymatic reaction was initiated by the addition of the fluorigenic substrate (Abz-GFSDYK-Dnp) (SEQ ID NO:3) at a final concentration of 20 μM. The fluorescent reaction product was excited at 320 nm and fluorescence recorded at 420 nm every four minutes over a one-hour period in a 96-well plate reader (Perkin-Elmer, HTS-7000). The initial enzymatic speed rate of the reaction was calculated for each condition. The reaction was carried out in presence of 5 mM EDTA to assess whether the assay is specific to metallopeptidase. Measurements were done in duplicates.
secPHEX enzymatic activity was determined using a fluorigenic substrate where increase of fluorescence was proportional to substrate conversion to products. […] Of these, S3 was the most preferred substrate. […]
The reaction was carried out in a total volume of 200 μl constituted of buffer (50 mM Mes(NaOH) pH 6.5, 150 mM NaCl, 5×10^−6 M captopril (ACE inhibitor)) and serum (preferably between 2 to 50 μl). […] The fluorescent reaction product is excited at 320 nm with fluoresce emission read at 420 nm every four minutes over a one-hour period using 96-well plate reader (Perikin-Elmer, HTS-7000™). The initial reaction rate was calculated from the acquired fluorescence-time data as a slope using Microsoft Excell™. PHEX Enzymatic activity (Vi) was calculated by subtracting to the initial rate of fluorescence (Vitot) with the same measured in presence of EDTA 5 mM (ViEDTA). […]
The actual secPHEX concentration was determined from a calibration curve (Vi Vs secPHEX concentration) obtained by serial dilution of secPHEX in serum or other biological media as required.

secPHEX [2] = target: T1, secPHEX; assay: IC50 determination of PHEX inhibitor, fluorigenic substrate assay
Experimental: secPHEX enzymatic activity was determined using a fluorigenic substrate where increase of fluorescence was proportional to substrate conversion to products. […] Of these, S3 was the most preferred substrate. S3 was synthesized as described above.
The reaction was carried out in a total volume of 200 μl constituted of buffer (50 mM Mes(NaOH) pH 6.5, 150 mM NaCl) containing various concentrations of the tested PHEX inhibitor (3×10^−5 to 1×10^−11 M) and 100 ng of purified secPHEX. The enzymatic reaction was initiated with the addition of the fluorigenic substrate at a final concentration of 10 μM. The fluorescent reaction product was excited at 320 nm with fluoresce emission read at 420 nm every four minutes over a one-hour period using 96-well plate reader (Perkin-Elmer, HTS-7000™). The initial reaction rate was calculated from the acquired fluorescence-time data as a slope using Microsoft Excell™. Further examples can be found in the co-pending PCT application number PCT/CA03/01893.
IC50 was determined with a plot of the initial rates computed above as a function of inhibitor concentration using the one site competition equation of GraphPad Prism™ version 3.03 (GraphPad™ Software Inc.).

secPHEX [3] = target: T1, secPHEX; assay: pH activity profile and NaCl dependence of secPHEX hydrolysis
Experimental: FIG. 2 graphically illustrates pH and NaCl (inset) dependence of Abz-GFSDYK(Dnp)-OH (SEQ ID NO:3) hydrolysis by secPHEX. * k,t/Km values for the hydrolysis of Abz-GFSDYK(Dnp)-OH (SEQ ID NO:3) by PHEX were determined in presence of different buffers and pH conditions as described herein under the heading “Experimental Procedures” below. In the inset, the effect of NaCl is shown: Abz-GFSDYK(Dnp)-OH (SEQ ID NO:3) was incubated with secPHEX in 0.01 M Bis-Tris buffer, pH 5.5 with NaCl (0 to 0.5 M);
The pH dependence was studied using […] of Abz-GFSDYK(Dnp)-OH (SEQ ID NO:3) over a pH range of 3.5 to 8.5. The buffers used were as follows: 0.01 M sodium acetate (3.5<pH<5.1), 0.01 M Bis-Tris (5.1<pH<6.5), 0.01 M Hepes (6.5<pH<7.4) and 0.01 M Tris-HCI (7.4<pH<8.4), containing 0.14 M NaCl. Enzymatic activity was followed at 37° C. using the continuous fluorimetric assay and the apparent second-order rate constant (*kcat/Km) was calculated as described above for each pH.
The influence of salt on secPHEX catalytic activity was investigated using 0.2 μM of Abz-GFSDYK(Dnp)-OH (SEQ ID NO:3) as substrate at 37° C., in 0.01 M Bis-Tris buffer, pH 5.5, over a NaCl range of 0 to 500 mM. The increase in fluorescence was continuously measured at 37° C. and the apparent second-order rate constant (*kcat/Km) for the different NaCl concentrations was calculated as described above.

secPHEX [4] = target: T1, secPHEX; assay: Kinetic parameters for hydrolysis of internally quenched fluorogenic peptides by secPHEX; conditions: for hydrolysis by secPHEX (result in words): 37° C., 10 mM Bis-Tris buffer pH 5.5, 150 mM NaCl
Experimental: The human recombinant secPHEX was obtained following the procedure previously described (17, WO 00/50580). Purified secPHEX concentration was determined using the Bradford method (DC protein assay kit; Bio-Rad, Mississauga, ON, Canada). Membrane-bound recombinant human PHEX was expressed in LLC-PK1 cells (17, (WO 00/50580)) and membranes were prepared essentially as described by Guo et al. (34). Briefly, transfected cells resuspended in lysis buffer (150 mM NaCl, 20 mM Tris.HCl, pH 7.6) were disrupted by sonication. Cell debris were removed by centrifugation at 300 g for 15 min at 4 °C. Membranes were collected by centrifugation at 30,000 g for 50 min and solubilized for 2h with 1% n-dodecyl-β-D-maltoside in lysis buffer. Insoluble material was pelleted by centrifugation at 10,000 g for 15 min and protein concentrations of the supernatant determined using the Bradford method described above. PHEX amounts were evaluated by immunoblotting as described previously (17). NEP expression and purification were performed as described previously (36).
The hydrolysis of the IQFPs, at 37° C., in 10 mM Bit-Tris buffer pH 5.5 (0.35 to 1.0 ml final volume) containing 150 mM NaCl, was continuously followed measuring the fluorescence at γem=420 nm and γex=320 nm in a Hitachi F-2000™ spectrofluorometer. The cuvefte containing the buffer and the substrate was placed in a thermostatically controlled cell compartment for 5 min before the addition of the enzyme and the increase in fluorescence with time was continuously recorded for 5-10 min. The enzyme concentration for initial rate determination was chosen at a level intended to hydrolyze less than 5% of the substrate present. […] The kinetic parameters Km and kcat were calculated by the non-linear regression data analysis Grafit program (42). The kcat/Km values were calculated as the ratio of these two determined parameters. The apparent second order rate constant kcat/Km (*kIt/Km) was determined under pseudo first-order conditions, where [S]<<Km. […]

| Compound | suitability as secPHEX substrate (secPHEX [1]) | suitability as secPHEX substrate (secPHEX [2]) | further results |
| --- | --- | --- | --- |
| CC(C)C[C@H](NC(=O)[C@H](Cc1c[nH]cn1)NC(=O)[C@H](CC(=O)O)NC(=O)c1ccccc1N)C(=O)N[C@@H](CO)C(=O)N[C@@H](CC(=O)O)C(=O)N[C@H](C(=O)N[C@@H](CO)C(=O)N[C@H](C(=O)N[C@@H](CCC(N)=O)C(=O)NCCNc1ccc([N+](=O)[O-])cc1[N+](=O)[O-])[C@@H](C)O)[C@@H](C)O [I-Abz-D125-HLS↓DTSTQ-EDDnp, Abz-DHLSDTSTQ-edDnp] (H-[2Abz]DHLSDTSTQ-EDDnp) | good secPHEX substrate | good secPHEX substrate |  |
| Nc1ccccc1C(=O)NCC(=O)N[C@@H](Cc1ccccc1)C(=O)N[C@@H](CO)C(=O)N[C@@H](CC(=O)O)C(=O)N[C@@H](Cc1ccc(O)cc1)C(=O)N[C@@H](CCCCNc1ccc([N+](=O)[O-])cc1[N+](=O)[O-])C(=O)O [I-Abz-GFS↓DYK(Dnp)-OH, Abz-GFSDYK(Dnp)-OH] (H-[2Abz]GFSDYK(Dnp)-OH) | good secPHEX substrate | good secPHEX substrate | kcat/Km with 150 mM NaCl lower than in the absence of added salt (secPHEX [3]; 10 mM Bis Tris, pH 5,5): more than 2 fold; pH of maximum kcat/Km (secPHEX [3]; pH range of 3.5 to 8.5, 37° C.): ~5.5 |
| NC(=O)[C@H](CCCCNc1ccc([N+](=O)[O-])cc1[N+](=O)[O-])NC(=O)[C@H](Cc1ccc(O)cc1)NC(=O)[C@H](CCC(=O)O)NC(=O)[C@H](CO)NC(=O)[C@H](Cc1ccccc1)NC(=O)CNC(=O)c1ccccc1N [V-Abz-GFSEYK(Dnp)-NH2, Abz-GFSEYK(Dnp)-NH2] (H-[2Abz]GFSEYK(Dnp)-NH2) |  |  | hydrolysis by secPHEX (result in words) (secPHEX [4]): Resistant; hydrolysis by secPHEX (result in words) (secPHEX [4]; listed as Abz-GFSEYK(Dnp)-NH2): resistant to hydrolysis |
| Abz-GFRDWK-Dnp ([2Abz]GFRDWK-{Dnp′}) [S1] | good secPHEX substrate | good secPHEX substrate |  |
| NC(=O)[C@H](CCCCNc1ccc([N+](=O)[O-])cc1[N+](=O)[O-])NC(=O)[C@H](Cc1ccc(O)cc1)NC(=O)[C@H](CC(=O)O)NC(=O)[C@H](CO)NC(=O)[C@H](Cc1ccccc1)NC(=O)CNC(=O)c1ccccc1N [II-Abz-GFS↓DYK(Dnp)-NH2, Abz-GFSDYK(Dnp)-NH2] (H-[2Abz]GFSDYK(Dnp)-NH2) |  |  | decrease in catalytic efficiency compared with Abz-GFSDYK(Dnp)-OH (secPHEX [4]; COOH-terminus amidated analogue): 6 fold |
